How the values were obtained:
[1] = test system: Human Respiratory Syncytial Virus; assay: Antiviral pre-treatment and post-treatment plaque tests (RSV); type: cell-based, Human respiratory syncytial virus (HRSV); settings: Hep-2 cells
Description: The concentrations of the Test Product were prepared using approximately 1:3 dilutions from the starting concentration determined following the cytotoxicity test.
The host cell culture was washed with PBS, and 1.0 mL aliquots of test product dilutions added to the cells. Cells were then incubated for 1 hour ± 15 minutes for equilibration. After the incubation, 1.0 mL aliquots of virus was added to the wells and incubated for 1 hour ± 15 minutes for virus adsorption. Following incubation, the mixture was removed and replaced with TM. The plates were then incubated in a CO2 incubator. The plates were incubated until viral plaques in the virus control could be microscopically registered (approximately 5-10 days).
Fixed cells were stained using Crystal Violet stain. Unstained zones of cell lysis (viral plaques) were counted.
The concentrations of the test product were prepared using approximately 1:3 dilutions from the starting concentration determined following the cytotoxicity test.
The host cell culture was washed with PBS, and 1.0 mL aliquots of virus added to the wells and incubated for 1 hour ± 15 minutes for virus adsorption. After incubation, virus inoculum was removed and replaced with aliquots of the test product concentrations in TM. The plates were then incubated in a CO2 incubator. The plates were then incubated until viral plaques in the virus control can be microscopically registered (approximately 5-10 days).
For the cell culture control, intact cell culture monolayers were used as the control of cell viability. The GM was replaced by TM in the cell culture control wells. […] Fixed cells were stained using Crystal Violet stain. Unstained zones of cell lysis (viral plaques) were counted.
Assessment of antiviral properties: The antiviral properties EC50 and/or EC90 was determined using non-linear regression analysis, GraphPad Prism 5.0 software.

[2] = test system: SARS-CoV-2 (2019-nCoV/USA-WA1/2020); assay: Virucidal evaluation with neutralization through sucrose cushion, plaque assay; type: cell-based; settings: for Reduction vs. Virus Control (%) / Reduction vs. Virus Control (Log10± SD): 10 mg/mL
[3] = test system: MERS-CoV (HCoV-EMC) Spike-pseudotyped GFP reporter lentiviral particles; type: cell-based
[4] = 10^4 pfu/mL, 5 sec incubation, 96 hours post-infection, Vero E6
[5] = 10^4 pfu/mL, 10 sec incubation, 96 hours post-infection, Vero E6
[6] = 10^4 pfu/mL, 30 sec incubation, 16 hours post-infection, Vero E6
[7] = 10^4 pfu/mL, 30 sec incubation, 96 hours post-infection, Vero E6
[8] = 10^4 pfu/mL, 1 min incubation, 16 hours post-infection, Vero E6
[9] = 10^4 pfu/mL, 1 min incubation, 96 hours post-infection, Vero E6
[10] = 10^4 pfu/mL, 5 min incubation, 16 hours post-infection, Vero E6
[11] = 10^4 pfu/mL, 10 min incubation, 96 hours post-infection, Vero E6
[12] = 10^4 pfu/mL, 15 min incubation, 16 hours post-infection, Vero E6
[13] = 10^4 pfu/mL, 15 min incubation, 96 hours post-infection, Vero E6
[14] = 10^5 pfu/mL, 5 sec incubation, 96 hours post-infection, Vero E6
[15] = 10^5 pfu/mL, 10 sec incubation, 96 hours post-infection, Vero E6
[16] = 10^5 pfu/mL, 30 sec incubation, 16 hours post-infection, Vero E6
[17] = 10^5 pfu/mL, 30 sec incubation, 96 hours post-infection, Vero E6
[18] = 10^5 pfu/mL, 1 min incubation, 16 hours post-infection, Vero E6
[19] = 10^5 pfu/mL, 1 min incubation, 96 hours post-infection, Vero E6
[20] = 10^5 pfu/mL, 5 min incubation, 16 hours post-infection, Vero E6
[21] = 10^5 pfu/mL, 10 min incubation, 96 hours post-infection, Vero E6
[22] = 10^5 pfu/mL, 15 min incubation, 16 hours post-infection, Vero E6
[23] = 10^5 pfu/mL, 15 min incubation, 96 hours post-infection, Vero E6
[24] = 10^6 pfu/mL, 5 sec incubation, 96 hours post-infection, Vero E6
[25] = 10^6 pfu/mL, 10 sec incubation, 96 hours post-infection, Vero E6
[26] = 10^6 pfu/mL, 30 sec incubation, 96 hours post-infection, Vero E6
[27] = 10^6 pfu/mL, 1 min incubation, 96 hours post-infection, Vero E6
[28] = 10^6 pfu/mL, 10 min incubation, 96 hours post-infection, Vero E6
[29] = 10^6 pfu/mL, 15 min incubation, 96 hours post-infection, Vero E6

**Q.** How did the “EC50, Best Fit Value” ([1]; Post Treatment) turn out when astodrimer sodium [SPL7013] was run?
**A.** Its value is 107 µg/mL.

**Q.** And the “EC90, Best Fit Value” ([1]; Post Treatment)?
**A.** The value was 1159 µg/mL.

**Q.** What about the “EC50, Best Fit Value” ([1]; PreTreatment) of the same substance?
**A.** Its value is 45 µg/mL.

**Q.** What about the “EC90, Best Fit Value” ([1]; PreTreatment) of the same substance?
**A.** Its value is 180 µg/mL.

**Q.** And the “Reduction vs. Virus Control (%)” value [2, 4]?
**A.** The value was -35.936%.

**Q.** What about the “Reduction vs. Virus Control (Log10± SD)” value [2, 4] of the same substance?
**A.** Its value is -0.13 ± 0.21 Log10.

**Q.** And the “Reduction vs. Virus Control (%)” value [2, 5]?
**A.** Its value is 14.230%.

**Q.** And the “Reduction vs. Virus Control (Log10± SD)” value [2, 5]?
**A.** The value was 0.07 ± 0.29 Log10.

**Q.** And the “Reduction vs. Virus Control (%)” value [2, 6]?
**A.** The value was 36.904%.

**Q.** What about the “Reduction vs. Virus Control (Log10± SD)” value [2, 6] of the same substance?
**A.** The value was 0.20 ± 0.20 Log10.

**Q.** What about the “Reduction vs. Virus Control (%)” value [2, 7] of the same substance?
**A.** The value was 20.567%.

**Q.** And the “Reduction vs. Virus Control (Log10± SD)” value [2, 7]?
**A.** The value was 0.10 ± 0.10 Log10.

**Q.** What about the “Reduction vs. Virus Control (%)” value [2, 8] of the same substance?
**A.** The value was 99.932%.

**Q.** What about the “Reduction vs. Virus Control (Log10± SD)” value [2, 8] of the same substance?
**A.** The value was 3.17 ± 0.12 Log10.

**Q.** What about the “Reduction vs. Virus Control (%)” value [2, 9] of the same substance?
**A.** Its value is 20.567%.

**Q.** And the “Reduction vs. Virus Control (Log10± SD)” value [2, 9]?
**A.** Its value is 0.10 ± 0.00 Log10.

**Q.** And the “Reduction vs. Virus Control (%)” value [2, 10]?
**A.** Its value is 99.979%.

**Q.** And the “Reduction vs. Virus Control (Log10± SD)” value [2, 10]?
**A.** Its value is 3.67 ± 0.21 Log10.

**Q.** And the “Reduction vs. Virus Control (%)” value [2, 11]?
**A.** Its value is greater than 99.999%.

**Q.** What about the “Reduction vs. Virus Control (Log10± SD)” value [2, 11] of the same substance?
**A.** Its value is 5.07 ± 0.25 Log10.

**Q.** What about the “Reduction vs. Virus Control (%)” value [2, 12] of the same substance?
**A.** Its value is 99.990%.

**Q.** What about the “Reduction vs. Virus Control (Log10± SD)” value [2, 12] of the same substance?
**A.** Its value is 4.00 ± 0.10 Log10.

**Q.** What about the “Reduction vs. Virus Control (%)” value [2, 13] of the same substance?
**A.** Its value is greater than 99.999%.

**Q.** What about the “Reduction vs. Virus Control (Log10± SD)” value [2, 13] of the same substance?
**A.** The value was 5.83 ± 0.12 Log10.

**Q.** What about the “Reduction vs. Virus Control (%)” value [2, 14] of the same substance?
**A.** The value was 53.584%.

**Q.** What about the “Reduction vs. Virus Control (Log10± SD)” value [2, 14] of the same substance?
**A.** The value was 0.33 ± 0.21 Log10.

**Q.** And the “Reduction vs. Virus Control (%)” value [2, 15]?
**A.** The value was 41.566%.

**Q.** And the “Reduction vs. Virus Control (Log10± SD)” value [2, 15]?
**A.** The value was 0.23 ± 0.06 Log10.

**Q.** What about the “Reduction vs. Virus Control (%)” value [2, 16] of the same substance?
**A.** Its value is 0.000%.

**Q.** And the “Reduction vs. Virus Control (Log10± SD)” value [2, 16]?
**A.** The value was 0.00 ± 0.36 Log10.

**Q.** What about the “Reduction vs. Virus Control (%)” value [2, 17] of the same substance?
**A.** Its value is 49.881%.

**Q.** And the “Reduction vs. Virus Control (Log10± SD)” value [2, 17]?
**A.** The value was 0.30 ± 0.17 Log10.

**Q.** And the “Reduction vs. Virus Control (%)” value [2, 18]?
**A.** Its value is 99.767%.

**Q.** And the “Reduction vs. Virus Control (Log10± SD)” value [2, 18]?
**A.** Its value is 2.63 ± 0.15 Log10.

**Q.** What about the “Reduction vs. Virus Control (%)” value [2, 19] of the same substance?
**A.** Its value is 65.855%.

**Q.** And the “Reduction vs. Virus Control (Log10± SD)” value [2, 19]?
**A.** Its value is 0.47 ±0.21 Log10.

**Q.** And the “Reduction vs. Virus Control (%)” value [2, 20]?
**A.** The value was 99.998%.

**Q.** What about the “Reduction vs. Virus Control (Log10± SD)” value [2, 20] of the same substance?
**A.** The value was 4.63 ± 0.31 Log10.

**Q.** And the “Reduction vs. Virus Control (%)” value [2, 21]?
**A.** The value was 99.980%.

**Q.** And the “Reduction vs. Virus Control (Log10± SD)” value [2, 21]?
**A.** Its value is 3.70 ± 0.26 Log10.

**Q.** And the “Reduction vs. Virus Control (%)” value [2, 22]?
**A.** The value was 99.998%.

**Q.** And the “Reduction vs. Virus Control (Log10± SD)” value [2, 22]?
**A.** The value was 4.60 ± 0.10 Log10.

**Q.** What about the “Reduction vs. Virus Control (%)” value [2, 23] of the same substance?
**A.** The value was 99.998%.

**Q.** And the “Reduction vs. Virus Control (Log10± SD)” value [2, 23]?
**A.** The value was 4.60 ± 0.10 Log10.

**Q.** And the “Reduction vs. Virus Control (%)” value [2, 24]?
**A.** Its value is 20.567%.

**Q.** And the “Reduction vs. Virus Control (Log10± SD)” value [2, 24]?
**A.** Its value is 0.10 ± 0.20 Log10.

**Q.** And the “Reduction vs. Virus Control (%)” value [2, 25]?
**A.** The value was 7.388%.

**Q.** And the “Reduction vs. Virus Control (Log10± SD)” value [2, 25]?
**A.** Its value is 0.03 ± 0.06 Log10.

**Q.** What about the “Reduction vs. Virus Control (%)” value [2, 26] of the same substance?
**A.** The value was 20.567%.

**Q.** And the “Reduction vs. Virus Control (Log10± SD)” value [2, 26]?
**A.** Its value is 0.10 ± 0.10 Log10.

**Q.** And the “Reduction vs. Virus Control (%)” value [2, 27]?
**A.** The value was 53.584%.

**Q.** What about the “Reduction vs. Virus Control (Log10± SD)” value [2, 27] of the same substance?
**A.** Its value is 0.33 ± 0.12 Log10.

**Q.** And the “Reduction vs. Virus Control (%)” value [2, 28]?
**A.** Its value is 99.369%.

**Q.** And the “Reduction vs. Virus Control (Log10± SD)” value [2, 28]?
**A.** The value was 2.20 ± 0.10 Log10.

**Q.** What about the “Reduction vs. Virus Control (%)” value [2, 29] of the same substance?
**A.** The value was 99.979%.

**Q.** What about the “Reduction vs. Virus Control (Log10± SD)” value [2, 29] of the same substance?
**A.** The value was 3.67 ± 0.23 Log10.

**Q.** And the “reduction in virus infectivity” value ([2]; 1 to 30 mg/mL, inoculums 10^4, 10^5 and 10^6 pfu/mL, 10 to 15 minutes exposure)?
**A.** Its value is greater than 99.9%.

**Q.** And the “reduction in virus infectivity” value ([2]; 10^4 pfu/mL viral inoculum, 10 to 30 mg/mL, 10 to 15 min incubation)?
**A.** Its value is greater than 99.999%.

**Q.** What about the SARS-CoV-2 inactivated ([2]; >10 mg/mL, 10^4 pfu/mL, within as little as 1 minute of exposure, 16 hours post-infection) of the same substance?
**A.** The SARS-CoV-2 inactivated was greater than 99.9%.

**Q.** What about the reduced infectivity ([2]; Vero E6, 10^6 pfu/mL, incubation 15 to 30 minutes, 10 to 30 mg/mL) of the same substance?
**A.** The reduced infectivity was greater than 99.999%.

**Q.** What about the reduction of infectivity ([2]; after 1 minute of exposure to the virus) of the same substance?
**A.** Its reduction of infectivity is greater than 99.9%.

**Q.** And the virucidal effect ([2]; exposure to virus for 30 seconds)?
**A.** Its virucidal effect is “no detectable virucidal effect”.

**Q.** What about the “binding/infection of Vero E6 cells by spike-pseudotyped lentivirus (GFP-positive cells, FACS)” value [3] of the same substance?
**A.** Its value is “potently inhibited”.
